In ChEMBL document CHEMBL5518189, “Design, synthesis and biological evaluation of 1,2,3-triazole benzothiazole derivatives as tubulin polymerization inhibitors with potent anti-esophageal cancer activities” (Eur J Med Chem, 2024):
Active and inactive are the calls of the source. No cut-off for these calls is given here.

Key:
KYSE-30 [1] = experiment: Antiproliferative activity against human KYSE-30 cells assessed as reduction in cell viability by CCK-8 method; format: functional, cell-based; details: time 12-48 hrs, TDE = time-dependent effect
KYSE-30 [2] = experiment: Induction of apoptosis in human KYSE-30 cells assessed as effect on Bcl-xl level at 40 to 60 nM by flow cytometry analysis; format: functional, cell-based; details: dose 40-60 nM
Cell membrane [3] = experiment: Induction of mitochondrial membrane depolarization in human KYSE-30 cells at 40 to 60 nM incubated for 24 hrs by flow cytometry analysis; format: cell membranes; details: dose 40-60 nM
KYSE-30 [4] = experiment: Induction of apoptosis in human KYSE-30 cells assessed as effect on Mcl-1 level at 40 to 60 nM by flow cytometry analysis; format: functional, cell-based; details: dose 40-60 nM
ECa-109 cell line [5] = experiment: Induction of apoptosis in human EC109 cells assessed as effect on bak level at 40 to 60 nM by flow cytometry analysis; format: functional, cell-based; details: dose 40-60 nM
Cell membrane [6] = experiment: Induction of mitochondrial membrane depolarization in human KYSE-30 cells assessed as increase in caspase 9 activity at 40 to 60 nM incubated for 24 hrs by flow cytometry analysis; format: cell membranes; details: dose 40-60 nM
ECa-109 cell line [7] = experiment: Induction of apoptosis in human EC109 cells assessed as effect on Mcl-1 level at 40 to 60 nM by flow cytometry analysis; format: functional, cell-based; details: dose 40-60 nM
Tubulin (Homo sapiens) = Tubulin (Homo sapiens) (UniProt P68371+Q9H4B7+P0DPH7+P68366+Q13509+Q71U36+P04350+Q3ZCM7+P07437+P68363+Q9BQE3+Q6PEY2+Q13885+Q9BVA1+Q9BUF5); experiment: Inhibition of tubulin polymerization in human EC109 cells assessed as appearance of multinucleation at 20 to 40 nM incubated for 6 hrs by immunofluorescence staining based fluorescence microscopic analysis; format: cell-based; details: dose 20-40 nM
KYSE-30 [8] = experiment: Induction of cell cycle arrest in human KYSE-30 cells assessed as accumulation of cells at G2/M phase at 0 to 40 nM measured after 48 hrs by propidium iodide staining based flow cytometry analysis (reference value: 13.87%); format: functional; details: dose 0-40 nM
KYSE-30 [9] = experiment: Induction of cell cycle arrest in human KYSE-30 cells assessed as downregulation of CDC25C level at 40 to 60 nM measured after 48 hrs by Western blot analysis; format: functional, cell-based; details: dose 40-60 nM
ECa-109 cell line [10] = experiment: Induction of apoptosis in human EC109 cells assessed as increase in Noxa expression level at 40 to 60 nM by flow cytometry analysis; format: functional, cell-based; details: dose 40-60 nM
KYSE-30 [11] = experiment: Inhibition of colony formation in human KYSE-30 cells at 20 to 40 nM incubated for 7 days by crystal violet staining based analysis; format: functional, cell-based; details: dose 20-40 nM, time 7.0 day
ECa-109 cell line [12] = experiment: Induction of cell cycle arrest in human EC109 cells assessed as downregulation of CDC25C level at 40 to 60 nM measured after 48 hrs by Western blot analysis; format: functional, cell-based; details: dose 40-60 nM
ECa-109 cell line [13] = experiment: Induction of apoptosis in human EC109 cells assessed as downregulation of bcl-2 level at 40 to 60 nM by flow cytometry analysis; format: functional, cell-based; details: dose 40-60 nM
ECa-109 cell line [14] = experiment: Induction of apoptosis in human EC109 cells assessed as downregulation of XIAP level at 40 to 60 nM by flow cytometry analysis; format: functional, cell-based; details: dose 40-60 nM
KYSE-30 [15] = experiment: Induction of apoptosis in human KYSE-30 cells assessed as increase in cleaved caspase 3 level at 40 to 100 nM measured after 48 hrs by Western blot analysis; format: functional, cell-based; details: dose 40-100 nM
KYSE-30 [16] = experiment: Induction of apoptosis in human KYSE-30 cells assessed as increase in total number of apoptotic cells at 40 nM measured after 48 hrs by annexin V-FITC and PI staining based flow cytometry analysis (reference value: 13.77%); format: functional
KYSE-30 [17] = experiment: Antiproliferative activity against human KYSE-30 cells assessed as reduction in cell viability measured after 48 hrs by CCK-8 method; format: functional, cell-based; details: dose 10-70 nM
ECa-109 cell line [18] = experiment: Induction of cell cycle arrest in human EC109 cells assessed as effect on cyclinB1 level at 40 to 60 nM measured after 48 hrs by Western blot analysis; format: functional, cell-based; details: dose 40-60 nM
ECa-109 cell line [19] = experiment: Induction of cell cycle arrest in human EC109 cells assessed as downregulation of CDK1 level at 40 to 60 nM measured after 48 hrs by Western blot analysis; format: functional, cell-based; details: dose 40-60 nM
ECa-109 cell line [20] = experiment: Antiproliferative activity against human EC109 cells assessed as reduction in cell viability by CCK-8 method; format: functional, cell-based; details: time 12-48 hrs, TDE = time-dependent effect
KYSE-30 [21] = experiment: Induction of apoptosis in human KYSE-30 cells assessed as increase in caspase 3 activity at 40 to 100 nM measured after 48 hrs by Western blot analysis; format: functional, cell-based; details: dose 40-100 nM
ECa-109 = experiment: Effect on MST2 level in human EC109 cells at 40 to 60 nM measured after 48 hrs; format: functional, cell-based; details: dose 40-60 nM

In the case of `COc1ccc(CN(C(=O)Cn2cc(CSc3nc4ccccc4s3)nn2)c2cc(OC)c(OC)c(OC)c2)cc1O`, the Activity (KYSE-30 [1]) is reported as “Tde”, the Activity (KYSE-30 [2]) is reported as “inactive” and the Activity (Cell membrane [3]) is reported as “Active”. For the same compound, the Activity (KYSE-30 [4]) was “inactive”, the Activity (ECa-109 cell line [5]) was “inactive” and the Activity (Cell membrane [6]) was “Active”. The Activity (ECa-109 cell line [7]) was “inactive”, the inhibition (Tubulin (Homo sapiens)) was “Active” and the Activity (KYSE-30 [8]) was 28.15%. For the same compound, the Activity (KYSE-30 [9]) was “Active”, the Activity (ECa-109 cell line [10]) was “Active” and the inhibition (KYSE-30 [11]) was “Active”. For the same compound, the Activity (ECa-109 cell line [12]) was “Active”, the Activity (ECa-109 cell line [13]) was “Active” and the Activity (ECa-109 cell line [14]) was “Active”. The Activity (KYSE-30 [15]) was “Active”, the Activity (KYSE-30 [16]) was 28.56% and the Activity (KYSE-30 [17]) was “Dose-Dependent Effect”. For the same compound, the Activity (ECa-109 cell line [18]) was “inactive”, the Activity (ECa-109 cell line [19]) was “Active” and the Activity (ECa-109 cell line [20]) was “Tde”. For the same compound, the Activity (KYSE-30 [21]) was “Active” and the Activity (ECa-109) was “inactive”.
